Measurements published in publication PMC9532703, “A novel small molecule RK-019 inhibits FGFR2-amplification gastric cancer cell proliferation and induces apoptosis in vitro and in vivo” (Frontiers in Pharmacology, 2022).

Experiments:
Test in all cases: Kinase selectivity panel
Assay type in all cases: biochemical
A-Raf(h) = molecular target: T1, A-Raf(h) (Homo sapiens, UniProt P10398); settings: read-out: Inhibition(%) @ 1 µM RK-019
T1 construct: purchased Eurofins Discovery Services (KinaseProfiler)
Protocol: (§1) Median-inhibitory concentration (IC50) and inhibition ratio of kinases by RK-019 was assessed by Eurofins Discovery Services (Dundee, United Kingdom) using the ATP-site competition binding assay in vitro. Firstly, gradient concentration of RK-019 against FGFRs, including FGFR1, FGFR2, FGFR3, and FGFR4, were tested. IC50 value was calculate by the GraphPad Prism software (v8.4.3, GraphPad Software, California, United States). Then, to measure the selectivity prolife of RK-019, a panel of 422 recombinant human kinases was screened at a concentration of 1 µM RK-019. Kinase MAP was drawn by webtools from Cell Signaling Technology, Inc. (www.cellsignal.com).

Aurora-A(h) = molecular target: T2, Aurora-A(h) (Homo sapiens, UniProt O14965); settings: read-out: Inhibition(%) @ 1 µM RK-019
T2 construct: purchased Eurofins Discovery Services (KinaseProfiler)
Protocol: as §1

Blk(h) = molecular target: T3, Blk(h) (Homo sapiens, UniProt P51451); settings: read-out: Inhibition(%) @ 1 µM RK-019
T3 construct: purchased Eurofins Discovery Services (KinaseProfiler)
Protocol: as §1

CHK2(R145W)(h) = molecular target: T4, CHK2(R145W)(h) (Homo sapiens, UniProt O96017, R145W); settings: read-out: Inhibition(%) @ 1 µM RK-019
T4 construct: purchased Eurofins Discovery Services (KinaseProfiler)
Protocol: as §1

CK1ε(h) = molecular target: T5, CK1ε(h) (Homo sapiens, UniProt P49674); settings: read-out: Inhibition(%) @ 1 µM RK-019
T5 construct: purchased Eurofins Discovery Services (KinaseProfiler)
Protocol: as §1

CK2(h) = molecular target: T6, CK2(h) (Homo sapiens, UniProt P68400); settings: read-out: Inhibition(%) @ 1 µM RK-019
T6 construct: purchased Eurofins Discovery Services (KinaseProfiler)
Protocol: as §1

CaMKK1(h) = molecular target: T7, CaMKK1(h) (Homo sapiens, UniProt Q8N5S9); settings: read-out: Inhibition(%) @ 1 µM RK-019
T7 construct: purchased Eurofins Discovery Services (KinaseProfiler)
Protocol: as §1

DAPK1(h) = molecular target: T8, DAPK1(h) (Homo sapiens, UniProt P53355); settings: read-out: Inhibition(%) @ 1 µM RK-019
T8 construct: purchased Eurofins Discovery Services (KinaseProfiler)
Protocol: as §1

EGFR(L861Q)(h) = molecular target: T9, EGFR(L861Q)(h) (Homo sapiens, UniProt P00533, L861Q); settings: read-out: Inhibition(%) @ 1 µM RK-019
T9 construct: purchased Eurofins Discovery Services (KinaseProfiler)
Protocol: as §1

EphA4(h) = molecular target: T10, EphA4(h) (Homo sapiens, UniProt P54764); settings: read-out: Inhibition(%) @ 1 µM RK-019
T10 construct: purchased Eurofins Discovery Services (KinaseProfiler)
Protocol: as §1

FGFR1(h) = molecular target: T11, FGFR1(h) (Homo sapiens, UniProt P11362)
T11 construct: purchased Eurofins Discovery Services (KinaseProfiler)
Protocol: as §1

Fgr(h) = molecular target: T12, Fgr(h) (Homo sapiens, UniProt P09769); settings: read-out: Inhibition(%) @ 1 µM RK-019
T12 construct: purchased Eurofins Discovery Services (KinaseProfiler)
Protocol: as §1

Flt3(h) = molecular target: T13, Flt3(h) (Homo sapiens, UniProt P36888); settings: read-out: Inhibition(%) @ 1 µM RK-019
T13 construct: purchased Eurofins Discovery Services (KinaseProfiler)
Protocol: as §1

GRK3(h) = molecular target: T14, GRK3(h) (Homo sapiens, UniProt P35626); settings: read-out: Inhibition(%) @ 1 µM RK-019
T14 construct: purchased Eurofins Discovery Services (KinaseProfiler)
Protocol: as §1

GSK3β(h) = molecular target: T15, GSK3β(h) (Homo sapiens, UniProt P49841); settings: read-out: Inhibition(%) @ 1 µM RK-019
T15 construct: purchased Eurofins Discovery Services (KinaseProfiler)
Protocol: as §1

HIPK2(h) = molecular target: T16, HIPK2(h) (Homo sapiens, UniProt Q9H2X6); settings: read-out: Inhibition(%) @ 1 µM RK-019
T16 construct: purchased Eurofins Discovery Services (KinaseProfiler)
Protocol: as §1

IR(h), activated = molecular target: T17, IR(h), activated (Homo sapiens, UniProt P06213); settings: read-out: Inhibition(%) @ 1 µM RK-019
T17 construct: purchased Eurofins Discovery Services (KinaseProfiler)
Protocol: as §1

IRE1(h) = molecular target: T18, IRE1(h) (Homo sapiens, UniProt O75460); settings: read-out: Inhibition(%) @ 1 µM RK-019
T18 construct: purchased Eurofins Discovery Services (KinaseProfiler)
Protocol: as §1

Lyn(h) = molecular target: T19, Lyn(h) (Homo sapiens, UniProt P07948)
T19 construct: purchased Eurofins Discovery Services (KinaseProfiler)
Protocol: as §1

MLK1(h) = molecular target: T20, MLK1(h) (Homo sapiens, UniProt P80192); settings: read-out: Inhibition(%) @ 1 µM RK-019
T20 construct: purchased Eurofins Discovery Services (KinaseProfiler)
Protocol: as §1

MST4(h) = molecular target: T21, MST4(h) (Homo sapiens, UniProt Q9P289); settings: read-out: Inhibition(%) @ 1 µM RK-019
T21 construct: purchased Eurofins Discovery Services (KinaseProfiler)
Protocol: as §1

NEK7(h) = molecular target: T22, NEK7(h) (Homo sapiens, UniProt Q8TDX7); settings: read-out: Inhibition(%) @ 1 µM RK-019
T22 construct: purchased Eurofins Discovery Services (KinaseProfiler)
Protocol: as §1

PAK4(h) = molecular target: T23, PAK4(h) (Homo sapiens, UniProt O96013); settings: read-out: Inhibition(%) @ 1 µM RK-019
T23 construct: purchased Eurofins Discovery Services (KinaseProfiler)
Protocol: as §1

[1] = molecular target: T24, PI3 Kinase (p110a(E542K)/p85a)(h) (Homo sapiens, UniProt P42336, E542K); settings: read-out: Inhibition(%) @ 1 µM RK-019
T24 construct: purchased Eurofins Discovery Services (KinaseProfiler)
Protocol: as §1

[2] = molecular target: T25, PI3 Kinase (p110a(E542K)/p85a)(m) (Mus musculus, UniProt P42337, E542K); settings: read-out: Inhibition(%) @ 1 µM RK-019
T25 construct: purchased Eurofins Discovery Services (KinaseProfiler)
Protocol: as §1

PKBγ(h) = molecular target: T26, PKBγ(h) (Homo sapiens, UniProt Q9Y243); settings: read-out: Inhibition(%) @ 1 µM RK-019
T26 construct: purchased Eurofins Discovery Services (KinaseProfiler)
Protocol: as §1

Ret(V804M)(h) = molecular target: T27, Ret(V804M)(h) (Homo sapiens, UniProt P07949, V804M); settings: read-out: Inhibition(%) @ 1 µM RK-019
T27 construct: purchased Eurofins Discovery Services (KinaseProfiler)
Protocol: as §1

Rse(h) = molecular target: T28, Rse(h) (Homo sapiens, UniProt Q06418); settings: read-out: Inhibition(%) @ 1 µM RK-019
T28 construct: purchased Eurofins Discovery Services (KinaseProfiler)
Protocol: as §1

SAPK2a(h) = molecular target: T29, SAPK2a(h) (Homo sapiens, UniProt Q16539); settings: read-out: Inhibition(%) @ 1 µM RK-019
T29 construct: purchased Eurofins Discovery Services (KinaseProfiler)
Protocol: as §1

SAPK4(h) = molecular target: T30, SAPK4(h) (Homo sapiens, UniProt O15264); settings: read-out: Inhibition(%) @ 1 µM RK-019
T30 construct: purchased Eurofins Discovery Services (KinaseProfiler)
Protocol: as §1

STK16(h) = molecular target: T31, STK16(h) (Homo sapiens, UniProt O75716); settings: read-out: Inhibition(%) @ 1 µM RK-019
T31 construct: purchased Eurofins Discovery Services (KinaseProfiler)
Protocol: as §1

STK32B(h) = molecular target: T32, STK32B(h) (Homo sapiens, UniProt Q9NY57); settings: read-out: Inhibition(%) @ 1 µM RK-019
T32 construct: purchased Eurofins Discovery Services (KinaseProfiler)
Protocol: as §1

TGFBR2(h) = molecular target: T33, TGFBR2(h) (Homo sapiens, UniProt P37173); settings: read-out: Inhibition(%) @ 1 µM RK-019
T33 construct: purchased Eurofins Discovery Services (KinaseProfiler)
Protocol: as §1

TLK2(h) = molecular target: T34, TLK2(h) (Homo sapiens, UniProt Q86UE8); settings: read-out: Inhibition(%) @ 1 µM RK-019
T34 construct: purchased Eurofins Discovery Services (KinaseProfiler)
Protocol: as §1

TTBK1(h) = molecular target: T35, TTBK1(h) (Homo sapiens, UniProt Q5TCY1); settings: read-out: Inhibition(%) @ 1 µM RK-019
T35 construct: purchased Eurofins Discovery Services (KinaseProfiler)
Protocol: as §1

Yes(h) = molecular target: T36, Yes(h) (Homo sapiens, UniProt P07947); settings: read-out: Inhibition(%) @ 1 µM RK-019
T36 construct: purchased Eurofins Discovery Services (KinaseProfiler)
Protocol: as §1

T11 sequence (P11362 22-822): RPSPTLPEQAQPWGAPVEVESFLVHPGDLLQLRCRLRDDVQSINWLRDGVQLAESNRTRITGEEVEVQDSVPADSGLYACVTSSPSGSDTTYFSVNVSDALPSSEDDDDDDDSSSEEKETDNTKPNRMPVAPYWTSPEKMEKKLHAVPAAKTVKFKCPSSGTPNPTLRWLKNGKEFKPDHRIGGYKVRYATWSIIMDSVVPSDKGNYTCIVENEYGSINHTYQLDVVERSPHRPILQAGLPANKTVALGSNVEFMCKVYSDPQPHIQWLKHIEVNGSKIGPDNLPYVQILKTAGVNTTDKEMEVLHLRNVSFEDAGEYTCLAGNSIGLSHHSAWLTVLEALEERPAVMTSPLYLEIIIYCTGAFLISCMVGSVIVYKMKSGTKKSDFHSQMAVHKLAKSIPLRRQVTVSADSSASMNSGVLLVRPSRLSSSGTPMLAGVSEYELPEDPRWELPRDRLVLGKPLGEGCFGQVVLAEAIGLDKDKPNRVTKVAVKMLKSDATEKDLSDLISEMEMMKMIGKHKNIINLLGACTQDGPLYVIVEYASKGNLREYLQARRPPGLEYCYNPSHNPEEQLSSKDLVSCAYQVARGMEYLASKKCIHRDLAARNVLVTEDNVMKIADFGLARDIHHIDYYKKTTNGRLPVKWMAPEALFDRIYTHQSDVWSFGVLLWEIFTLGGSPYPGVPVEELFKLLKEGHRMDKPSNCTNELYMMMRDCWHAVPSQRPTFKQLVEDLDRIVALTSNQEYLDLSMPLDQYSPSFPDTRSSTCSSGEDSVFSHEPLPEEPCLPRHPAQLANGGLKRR
T19 sequence (P07948 whole entry): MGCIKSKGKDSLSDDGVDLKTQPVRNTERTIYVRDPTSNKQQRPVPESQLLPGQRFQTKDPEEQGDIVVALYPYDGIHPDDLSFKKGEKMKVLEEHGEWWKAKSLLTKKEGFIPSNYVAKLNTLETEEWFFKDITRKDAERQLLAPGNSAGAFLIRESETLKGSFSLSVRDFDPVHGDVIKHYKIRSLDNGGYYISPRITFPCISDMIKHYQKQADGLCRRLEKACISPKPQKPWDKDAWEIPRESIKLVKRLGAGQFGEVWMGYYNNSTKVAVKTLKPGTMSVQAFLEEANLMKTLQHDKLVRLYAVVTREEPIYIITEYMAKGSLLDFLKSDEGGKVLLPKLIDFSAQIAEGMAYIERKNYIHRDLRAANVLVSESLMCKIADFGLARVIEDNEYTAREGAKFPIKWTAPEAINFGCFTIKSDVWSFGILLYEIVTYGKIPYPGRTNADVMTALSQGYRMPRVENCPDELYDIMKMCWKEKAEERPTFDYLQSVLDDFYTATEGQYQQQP
T35 sequence (Q5TCY1 whole entry): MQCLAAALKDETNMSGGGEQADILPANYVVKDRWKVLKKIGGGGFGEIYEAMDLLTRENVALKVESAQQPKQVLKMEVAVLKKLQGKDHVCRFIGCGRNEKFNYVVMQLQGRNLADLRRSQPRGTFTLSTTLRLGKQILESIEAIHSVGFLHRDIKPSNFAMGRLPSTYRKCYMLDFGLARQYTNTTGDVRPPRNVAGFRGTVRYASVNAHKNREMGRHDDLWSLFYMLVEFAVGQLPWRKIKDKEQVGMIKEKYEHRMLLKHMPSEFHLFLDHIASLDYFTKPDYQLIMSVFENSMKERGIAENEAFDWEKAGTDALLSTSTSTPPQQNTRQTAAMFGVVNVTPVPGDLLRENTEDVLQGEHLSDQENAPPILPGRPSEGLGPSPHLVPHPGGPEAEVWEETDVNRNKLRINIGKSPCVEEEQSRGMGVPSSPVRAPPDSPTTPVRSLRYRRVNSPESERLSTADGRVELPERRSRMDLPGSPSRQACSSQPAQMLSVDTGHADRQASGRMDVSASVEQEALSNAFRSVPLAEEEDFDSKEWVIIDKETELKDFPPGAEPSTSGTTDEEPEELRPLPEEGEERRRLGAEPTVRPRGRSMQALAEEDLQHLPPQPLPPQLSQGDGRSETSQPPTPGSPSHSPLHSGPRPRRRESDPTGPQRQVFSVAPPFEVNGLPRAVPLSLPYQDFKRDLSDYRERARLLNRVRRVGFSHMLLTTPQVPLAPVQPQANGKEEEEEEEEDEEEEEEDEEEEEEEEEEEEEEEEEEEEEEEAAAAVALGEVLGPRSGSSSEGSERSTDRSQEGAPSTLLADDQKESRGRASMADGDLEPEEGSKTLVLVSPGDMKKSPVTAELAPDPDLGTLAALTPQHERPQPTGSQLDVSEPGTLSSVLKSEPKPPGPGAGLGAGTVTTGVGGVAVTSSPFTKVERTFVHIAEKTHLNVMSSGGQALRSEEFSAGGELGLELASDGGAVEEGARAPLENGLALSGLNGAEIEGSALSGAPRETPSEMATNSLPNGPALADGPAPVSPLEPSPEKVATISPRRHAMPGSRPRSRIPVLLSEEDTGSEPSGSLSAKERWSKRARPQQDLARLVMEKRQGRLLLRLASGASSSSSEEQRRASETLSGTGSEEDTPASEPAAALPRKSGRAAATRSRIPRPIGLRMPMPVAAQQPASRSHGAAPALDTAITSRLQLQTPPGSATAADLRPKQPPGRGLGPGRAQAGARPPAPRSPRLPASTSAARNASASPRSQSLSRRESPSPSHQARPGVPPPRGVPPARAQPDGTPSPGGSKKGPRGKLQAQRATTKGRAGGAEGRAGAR
T5 sequence (P49674 whole entry): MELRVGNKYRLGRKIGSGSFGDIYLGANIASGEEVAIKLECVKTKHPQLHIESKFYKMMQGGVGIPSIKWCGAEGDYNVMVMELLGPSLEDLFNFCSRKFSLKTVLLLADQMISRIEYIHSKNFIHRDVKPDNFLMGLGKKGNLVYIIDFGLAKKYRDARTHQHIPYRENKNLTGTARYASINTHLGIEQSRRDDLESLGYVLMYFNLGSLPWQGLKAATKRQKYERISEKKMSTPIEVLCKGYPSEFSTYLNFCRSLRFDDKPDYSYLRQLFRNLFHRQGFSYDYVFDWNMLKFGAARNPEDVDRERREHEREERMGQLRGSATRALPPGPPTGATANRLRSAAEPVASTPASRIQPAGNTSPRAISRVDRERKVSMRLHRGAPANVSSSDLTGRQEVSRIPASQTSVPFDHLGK
T30 sequence (O15264 whole entry): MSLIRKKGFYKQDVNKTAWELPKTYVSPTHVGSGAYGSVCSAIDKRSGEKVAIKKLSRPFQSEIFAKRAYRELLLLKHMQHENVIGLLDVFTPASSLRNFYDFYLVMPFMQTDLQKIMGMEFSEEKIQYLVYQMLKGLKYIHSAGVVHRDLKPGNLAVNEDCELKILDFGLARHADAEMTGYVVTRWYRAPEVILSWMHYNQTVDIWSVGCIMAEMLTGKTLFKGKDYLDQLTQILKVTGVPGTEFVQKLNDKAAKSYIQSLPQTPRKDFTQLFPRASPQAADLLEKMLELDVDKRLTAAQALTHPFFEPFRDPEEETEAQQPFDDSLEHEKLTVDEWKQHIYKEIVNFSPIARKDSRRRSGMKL
T10 sequence (P54764 20-986): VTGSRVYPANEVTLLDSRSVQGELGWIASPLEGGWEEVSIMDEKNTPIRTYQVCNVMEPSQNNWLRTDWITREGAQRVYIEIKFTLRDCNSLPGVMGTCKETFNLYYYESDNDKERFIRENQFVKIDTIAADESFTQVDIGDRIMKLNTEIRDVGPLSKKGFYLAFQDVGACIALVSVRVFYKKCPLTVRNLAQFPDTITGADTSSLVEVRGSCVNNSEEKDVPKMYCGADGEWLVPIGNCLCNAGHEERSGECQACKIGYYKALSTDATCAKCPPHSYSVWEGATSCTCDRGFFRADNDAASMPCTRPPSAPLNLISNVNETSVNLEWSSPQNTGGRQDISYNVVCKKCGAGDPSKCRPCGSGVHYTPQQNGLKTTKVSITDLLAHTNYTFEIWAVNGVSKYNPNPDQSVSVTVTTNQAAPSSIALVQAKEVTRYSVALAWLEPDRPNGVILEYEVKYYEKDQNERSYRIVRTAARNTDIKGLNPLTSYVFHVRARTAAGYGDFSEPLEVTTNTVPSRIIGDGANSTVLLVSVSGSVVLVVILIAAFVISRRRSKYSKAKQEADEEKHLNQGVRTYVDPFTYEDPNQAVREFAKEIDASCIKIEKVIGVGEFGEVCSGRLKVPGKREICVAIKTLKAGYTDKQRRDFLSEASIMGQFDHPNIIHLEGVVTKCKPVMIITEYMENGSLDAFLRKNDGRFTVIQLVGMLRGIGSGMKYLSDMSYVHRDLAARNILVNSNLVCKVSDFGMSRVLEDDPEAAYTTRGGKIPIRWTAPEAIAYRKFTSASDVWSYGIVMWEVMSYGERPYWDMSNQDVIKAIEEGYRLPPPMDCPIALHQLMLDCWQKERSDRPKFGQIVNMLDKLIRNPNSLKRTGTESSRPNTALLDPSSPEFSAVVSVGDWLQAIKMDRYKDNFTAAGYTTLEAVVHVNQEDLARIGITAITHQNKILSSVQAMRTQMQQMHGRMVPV
T2 sequence (O14965 whole entry): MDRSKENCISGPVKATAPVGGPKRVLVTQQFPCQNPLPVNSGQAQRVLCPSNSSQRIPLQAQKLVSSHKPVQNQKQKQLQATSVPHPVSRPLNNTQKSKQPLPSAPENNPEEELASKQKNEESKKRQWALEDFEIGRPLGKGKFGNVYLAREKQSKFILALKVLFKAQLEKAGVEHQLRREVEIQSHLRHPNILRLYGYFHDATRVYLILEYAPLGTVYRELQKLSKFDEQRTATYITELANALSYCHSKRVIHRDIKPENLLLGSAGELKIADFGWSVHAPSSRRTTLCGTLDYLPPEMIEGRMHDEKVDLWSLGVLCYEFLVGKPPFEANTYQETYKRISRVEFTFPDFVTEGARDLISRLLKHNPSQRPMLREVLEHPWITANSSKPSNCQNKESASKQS

COc1cc(OC)cc(N(CCN[C@H](C)CO)c2ccc3ncc(-c4cnn(C)c4)c(=O)n3c2)c1 [RK-019, (R)-7-((3,5-dimethoxyphenyl) (2-((1-hydroxypropan-2-yl)amino)ethyl)amino)-3-(1-methyl-1H-pyrazol-4-yl)-4H-pyrido [1,2-a]pyrimidin-4-one]
activity at 1 µM (A-Raf(h)): 133%
activity at 1 µM (Aurora-A(h)): 133%
activity at 1 µM (Blk(h)): 70%
activity at 1 µM (CHK2(R145W)(h)): 100%
activity at 1 µM (CK1ε(h)): 99%
activity at 1 µM (CK2(h)): 112%
activity at 1 µM (CaMKK1(h)): 105%
activity at 1 µM (DAPK1(h)): 100%
activity at 1 µM (EGFR(L861Q)(h)): 103%
activity at 1 µM (EphA4(h)): 101%
activity at 1 µM (FGFR1(h); FGFR1(h), read-out: Inhibition(%) @ 1 µM RK-019): -1%
inhibition at 1 µM (FGFR1(h); FGFR1, 1 µM, read-out: inhibition (hit in panel)): > 90%
activity at 1 µM (Fgr(h)): 54%
activity at 1 µM (Flt3(h)): 123%
activity at 1 µM (GRK3(h)): 123%
activity at 1 µM (GSK3β(h)): 96%
activity at 1 µM (HIPK2(h)): 83%
activity at 1 µM (IR(h), activated): 95%
activity at 1 µM (IRE1(h)): 93%
inhibition at 1 µM (Lyn(h); LYN, 1 µM, read-out: inhibition (hit in panel)): > 90%
activity at 1 µM (Lyn(h); Lyn(h), read-out: Inhibition(%) @ 1 µM RK-019): 6%
activity at 1 µM (MLK1(h)): 99%
activity at 1 µM (MST4(h)): 90%
activity at 1 µM (NEK7(h)): 99%
activity at 1 µM (PAK4(h)): 82%
activity at 1 µM [1]: 98%
activity at 1 µM [2]: 99%
activity at 1 µM (PKBγ(h)): 94%
activity at 1 µM (Ret(V804M)(h)): 56%
activity at 1 µM (Rse(h)): 104%
activity at 1 µM (SAPK2a(h)): 100%
activity at 1 µM (SAPK4(h)): 112%
activity at 1 µM (STK16(h)): 113%
activity at 1 µM (STK32B(h)): 123%
activity at 1 µM (TGFBR2(h)): 85%
activity at 1 µM (TLK2(h)): 124%
activity at 1 µM (TTBK1(h)): 90%
activity at 1 µM (Yes(h)): 29%
